From PubChem BioAssay AID1963844 (Molecular Pharmacology Branch, DTP, NCI, 2024)
Values joined by “and” are separate entries in the source; they are usually repeats but may differ in a detail not shown here. Identical values can stand only once.

Tested on: 422866-222-R5-J1-PDC complex spheroid viability
Test: Anticancer human tumor 422866-222-R5-J1-PDC patient-derived pancreatic adenocarcinoma cell line growth inhibition [POLQ]
Conditions: for viability, T/C: stronger effect = lower value
Description: Multicellular complex tumor spheroid response to Polymerase (POL) inhibitors (novobiocin, ART-558, RP6685) in combination with a variety of drugs and investigational agents in selected tumor cell lines
The POL inhibitors (novobiocin, ART-558, and RP6685) were evaluated both individually and in combination with standard of care and investigational anticancer small molecules within a complex spheroid model of solid tumors. . Complex spheroids include a stromal component modeled by human endothelial cells (HUVEC) and fibroblasts modeled by human mesenchymal stem cells (MSCs). The concentration ranges selected for each drug and investigational agent were based upon clinically achievable concentrations if the clinical Cmax of the agent was known.
Compounds. The drugs and investigational agents: novobiocin (NSC847541), ART-558 (NSC835418), RP-6685 (NSC848927), peposertib (NSC802822), ceralasertib (NSC780249), elimusertib (NSC800525), camonsertib (NSC841442), AZD-1390 (NSC803789), olaparib (NSC753686), talazoparib (NSC767125), rucaparib (NSC756644), sotorasib (NSC818433), MRTX-1133 (NSC836407), SN-38 (NSC673596), topotecan (NSC609699), epotoside (NSC141540), doxorubicin (NSC123127), gemcitabine (NSC613327), 5-fluorouracil (NSC19893), paclitaxel (NSC125973), vemurafenib (NSC761431), MSA-2 (NSC828583), SN-011 (NSC837082), adavosertib (NSC754352), prexasertib (NSC758257), carboplatin (NSC241240) and oxaliplatin (NSC266046), were obtained from the National Cancer Institute (NCI) Developmental Therapeutics Program Chemical Repository (21). The FDA-approved anticancer drug set is available from the Developmental Therapeutics Program at https://dtp.cancer.gov/organization/dscb/obtaining/. […] The stock solutions were prepared in dimethyl sulfoxide (DMSO, Sigma-Aldrich, St. Louis, MO, cat. D2650), except for the platinum compounds which were prepared in saline (Quality Biological, Gaithersburg, MD, cat. 114-055-101), at 800-fold the tested concentration and stored at -70 degrees C prior to their use. All drugs and investigational agents were tested over a range starting from a high concentration at or near the clinical Cmax and decreasing in half-log increments. If the clinical Cmax for an agent had not been determined, the highest concentration tested was 10 microM, except for SN-38, which was tested at a high concentration of 1 microM.
Cell Culture. All cells were maintained in an incubator at 37 degrees C and 5% CO2 with 95% humidity. The PDC lines were cultured according to standard operating procedures established by the NCI PDMR (https://pdmr.cancer.gov). Table 3 of the manuscript, lists the cell lines along with the number of the three cell types plated to form the mct-spheroids and media for tumor cell growth. After thawing, all PDC lines, except 997537-175-T-J1-PDC and 415267-285-R-J2-PDC, were cultured in Matrigel-coated flasks prepared with a working solution of 1X Ham's F-12 nutrient mix, without supplementation (Thermo Fisher Scientific, cat. 11765054), 100 U/mL penicillin-streptomycin (Thermo Fisher Scientific, cat. 15140122), and 2.5% Matrigel (Corning Inc., Corning, NY, cat. 354248) for the first three passages. The two PDC lines 997537-175-T-J1-PDC and 415267-285-R-J2-PDC were cultured on uncoated flasks. The 857933-349-R-J2-PDC line was cultured in 6C/Colon 1B media containing advanced DMEM/F-12 (Thermo Fisher Scientific, cat. 12634028), 10 mM HEPES (Thermo Fisher Scientific, cat. 15630080), 1X GlutaMAX supplement (Thermo Fisher Scientific, cat. 35050061), 0.1 mg/mL primocin (InvivoGen, San Diego, CA, cat. ant-pm-2), 10% defined fetal bovine serum, heat inactivated (HyClone Laboratories Inc., Logan, UT, cat. SH30070.03HI), 50% L-WRN conditioned media (ATCC, cat. CRL-3276), 1.25 mM N-Acetyl-L-cysteine (Sigma-Aldrich, cat. A9165), 10 mM nicotinamide (Sigma-Aldrich, cat. N0636), 1X B-27 supplement (Thermo Fisher Scientific, cat. 17504044), 1X N-2 supplement (Thermo Fisher Scientific, cat. […]
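Also: spheroids exposed to compounds for one week before readout.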
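For viability, T/C in this document: percent of DMSO vehicle wells luminescence so 100% = untreated viability.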

## O=c1[nH]cc(F)c(=O)[nH]1
Compound 0.0316 µM
  viability, T/C: 95.8% and 101% and 92%
Compound 0.1 µM
  viability, T/C: 103% and 93.5% and 99.9%
Compound 0.316 µM
  viability, T/C: 107% and 97.4% and 98.9%
Compound 1 µM
  viability, T/C: 85% and 101% and 80.7%
Compound 3.16 µM
  viability, T/C: 73.7% and 83.7% and 89.8%
Compound 10 µM
  viability, T/C: 74.5% and 73.4% and 72.8%
Curve of compound
  IC50: > 10000 nM

## Cn1ncnc1[C@H]1c2n[nH]c(=O)c3cc(F)cc(c23)N[C@@H]1c1ccc(F)cc1 + Nc1ccc(C#CCN(C(=O)Cc2ncc(C(F)(F)F)cc2C(F)(F)F)c2ccc(F)cc2)nn1
Curve of first compound, second compound 0.0316 µM
  IC50: > 100 nM
Curve of first compound, second compound 0.1 µM
  IC50: > 100 nM
Curve of first compound, second compound 0.316 µM
  IC50: > 100 nM
Curve of first compound, second compound 1 µM
  IC50: > 100 nM
Curve of first compound, second compound 3.16 µM
  IC50: > 100 nM
Curve of first compound, second compound 10 µM
  IC50: > 100 nM
Second compound 0.0316 µM, first compound 0.000316 µM
  viability, T/C: 91.5%
Second compound 0.0316 µM, first compound 0.001 µM
  viability, T/C: 115%
Second compound 0.0316 µM, first compound 0.00316 µM
  viability, T/C: 80.7%
Second compound 0.0316 µM, first compound 0.01 µM
  viability, T/C: 104%
Second compound 0.0316 µM, first compound 0.0316 µM
  viability, T/C: 88.3%
Second compound 0.0316 µM, first compound 0.1 µM
  viability, T/C: 75.7%
Second compound 0.1 µM, first compound 0.000316 µM
  viability, T/C: 101%
Second compound 0.1 µM, first compound 0.001 µM
  viability, T/C: 106%
Second compound 0.1 µM, first compound 0.00316 µM
  viability, T/C: 110%
Second compound 0.1 µM, first compound 0.01 µM
  viability, T/C: 85.2%
Second compound 0.1 µM, first compound 0.0316 µM
  viability, T/C: 81.7%
Second compound 0.1 µM, first compound 0.1 µM
  viability, T/C: 74.1%
Second compound 0.316 µM, first compound 0.000316 µM
  viability, T/C: 112%
Second compound 0.316 µM, first compound 0.001 µM
  viability, T/C: 108%
Second compound 0.316 µM, first compound 0.00316 µM
  viability, T/C: 86.1%
Second compound 0.316 µM, first compound 0.01 µM
  viability, T/C: 91.6%
Second compound 0.316 µM, first compound 0.0316 µM
  viability, T/C: 92.7%
Second compound 0.316 µM, first compound 0.1 µM
  viability, T/C: 75.2%
Second compound 1 µM, first compound 0.000316 µM
  viability, T/C: 109%
Second compound 1 µM, first compound 0.001 µM
  viability, T/C: 93.6%
Second compound 1 µM, first compound 0.00316 µM
  viability, T/C: 98.8%
Second compound 1 µM, first compound 0.01 µM
  viability, T/C: 98.8%
Second compound 1 µM, first compound 0.0316 µM
  viability, T/C: 77%
Second compound 1 µM, first compound 0.1 µM
  viability, T/C: 87.9%
Second compound 3.16 µM, first compound 0.000316 µM
  viability, T/C: 115%
Second compound 3.16 µM, first compound 0.001 µM
  viability, T/C: 111%
Second compound 3.16 µM, first compound 0.00316 µM
  viability, T/C: 98.1%
Second compound 3.16 µM, first compound 0.01 µM
  viability, T/C: 94.9%
Second compound 3.16 µM, first compound 0.0316 µM
  viability, T/C: 89.1%
Second compound 3.16 µM, first compound 0.1 µM
  viability, T/C: 92.4%
Second compound 10 µM, first compound 0.000316 µM
  viability, T/C: 101%
Second compound 10 µM, first compound 0.001 µM
  viability, T/C: 111%
Second compound 10 µM, first compound 0.00316 µM
  viability, T/C: 108%
Second compound 10 µM, first compound 0.01 µM
  viability, T/C: 95.7%
Second compound 10 µM, first compound 0.0316 µM
  viability, T/C: 86.1%
Second compound 10 µM, first compound 0.1 µM
  viability, T/C: 77.9%

## CC(=O)O[C@H]1C(=O)[C@@]2(C)[C@H]([C@H](OC(=O)c3ccccc3)[C@]3(O)C[C@H](OC(=O)[C@H](O)[C@@H](NC(=O)c4ccccc4)c4ccccc4)C(C)=C1C3(C)C)[C@]1(OC(C)=O)CO[C@@H]1C[C@@H]2O
Compound 0.00949 µM
  viability, T/C: 50.9% and 53.8% and 66.3%
Compound 0.03 µM
  viability, T/C: 50.2% and 51.8% and 56.2%
Compound 0.0949 µM
  viability, T/C: 54.2% and 52.1% and 68.6%
Compound 0.3 µM
  viability, T/C: 64.3% and 52.8% and 60.4%
Compound 0.949 µM
  viability, T/C: 53.7% and 57.4% and 68.9%
Compound 3 µM
  viability, T/C: 61.5% and 58.4% and 69.8%
Curve of compound
  IC50: > 3000 nM
